Source: paper PMC11995724, “Antibiotic target discovery by integrated phenotypic and activity-based profiling of electrophilic fragments” (Cell chemical biology, 2025)

Test: in vitro
Settings: human, hek293t cells
Experimental: Mammalian cytotoxicity measurement was performed using Cell Titer-Glo 2.0 Cell Viability Assay (Promega, G9243) according to the manufacturer protocol. In brief, mammalian cells were seeded into 384-well white plates (Greiner, 781080) and incubated at 37°C for one day. Compounds from the Cys-Library were dispensed into the assay plate using epMotion 96. The plates were then incubated at 37°C for two days. An equal volume of Cell Titer-Glo 2.0 reagent was added into each well of the assay plate using epMotion 96 and incubated at 22°C for 10 min, followed by luminescence measurement using a Cytation 5 plate reader (BioTek).

For `C=CC(=O)N(C)CC(=O)Nc1ccc(N2C[C@@H](C)O[C@@H](C)C2)cc1` [3-H08, N-[({4-[(2R,6S)-2,6-dimethylmorpholin-4-yl]phenyl}carbamoyl)methyl]-N-methylprop-2-enamide], the viability at 48 h, 25 µM was 94.9%.

Work on `C=CC(=O)N1CCOC(c2nccs2)C1` (stereo not drawn) [3-H09, 1-[2-(1,3-thiazol-2-yl)morpholin-4-yl]prop-2-en-1-one] yielded a viability at 48 h, 25 µM of 69.4%.

Compound `C=CC(=O)Nc1ccccc1-n1nccn1` [3-H10, N-[2-(2H-1,2,3-triazol-2-yl)phenyl]prop-2-enamide] has a viability at 48 h, 25 µM of 73.2%.

Compound `C=CC(=O)NCc1ncnn1-c1ccccc1` [3-H11, N-[(1-phenyl-1H-1,2,4-triazol-5-yl)methyl]prop-2-enamide] has a viability at 48 h, 25 µM of 63.1%.

`C=CC(=O)N1CCC(C(=O)NC2(Cc3ccccc3)CCCC2)CC1` [3-H12, N-(1-benzylcyclopentyl)-1-(prop-2-enoyl)piperidine-4-carboxamide] gave a viability at 48 h, 25 µM of 83.4%.

`C=CC(=O)NC1(c2nc(C3CC3)cc(=O)[nH]2)CCCCC1` [3-H13, N-[1-(4-cyclopropyl-6-oxo-1,6-dihydropyrimidin-2-yl)cyclohexyl]prop-2-enamide] gave a viability at 48 h, 25 µM of 68.3%.

Work on `C=CC(=O)Nc1ccc2occc2c1` [3-H14, N-(1-benzofuran-5-yl)prop-2-enamide] yielded a viability at 48 h, 25 µM of 99.9%.

`C=CC(=O)NCc1noc(-c2cccs2)n1` [3-H15, N-{[5-(thiophen-2-yl)-1,2,4-oxadiazol-3-yl]methyl}prop-2-enamide] gave a viability at 48 h, 25 µM of 93.9%.

Work on `C=CC(=O)NCc1ccc(-n2ccc(C)n2)nc1` [3-H16, N-{[6-(3-methyl-1H-pyrazol-1-yl)pyridin-3-yl]methyl}prop-2-enamide] yielded a viability at 48 h, 25 µM of 99.7%.

For `C=CC(=O)Nc1ccccc1C(=O)N(C)C(C)C` [3-H17, N-methyl-2-(prop-2-enamido)-N-(propan-2-yl)benzamide], the viability at 48 h, 25 µM was 66.9%.

In the case of `C=CC(=O)N1CCS(=O)(=O)N2CCCC12` (stereo not drawn) [3-H18, 1-(prop-2-enoyl)-hexahydro-1H-4lambda6-pyrrolo[1,2-b][1,2,4]thiadiazine-4,4-dione], the viability at 48 h, 25 µM is reported as 93.3%.

`C=CC(=O)NCCCN1CCCS1(=O)=O` [3-H19, N-[3-(1,1-dioxo-1lambda6,2-thiazolidin-2-yl)propyl]prop-2-enamide] showed a viability at 48 h, 25 µM of 88.4%.

For `C=CC(=O)NC(c1ccc(F)cc1)C1CC1` (stereo not drawn) [3-H20, N-[cyclopropyl(4-fluorophenyl)methyl]prop-2-enamide], the viability at 48 h, 25 µM was 89.2%.

`C=CC(=O)NCc1ccnn1C1CCCC1` [3-H21, N-[(1-cyclopentyl-1H-pyrazol-5-yl)methyl]prop-2-enamide] showed a viability at 48 h, 25 µM of 74.5%.

`C=CC(=O)NCc1ccccc1S(=O)(=O)N1CCOCC1` [3-H22, N-{[2-(morpholine-4-sulfonyl)phenyl]methyl}prop-2-enamide] gave a viability at 48 h, 25 µM of 89.1%.

`C=CC(=O)Nc1cnn(-c2ccccc2)c1C(F)F` [3-I03, N-[5-(difluoromethyl)-1-phenyl-1H-pyrazol-4-yl]prop-2-enamide] showed a viability at 48 h, 25 µM of 41.7%.

`C=CC(=O)NCc1ccc(C(=O)N2CCNC(=O)CC2)cc1` [3-I04, N-{[4-(5-oxo-1,4-diazepane-1-carbonyl)phenyl]methyl}prop-2-enamide] showed a viability at 48 h, 25 µM of 93.2%.

In the case of `C=CC(=O)N(CC)Cc1cccc2c1OCO2` [3-I05, N-[(1,3-dioxaindan-4-yl)methyl]-N-ethylprop-2-enamide], the viability at 48 h, 25 µM is reported as 47.8%.

Compound `C=CC(=O)NCc1ccc(C(=O)N2CCCC23CCOC3=O)cc1` (stereo not drawn) [3-I06, N-[(4-{6-oxo-7-oxa-1-azaspiro[4.4]nonane-1-carbonyl}phenyl)methyl]prop-2-enamide] has a viability at 48 h, 25 µM of 88.5%.

`C=CC(=O)N1CCC(c2noc3cc(F)ccc23)CC1` [3-I07, 1-[4-(6-fluoro-1,2-benzoxazol-3-yl)piperidin-1-yl]prop-2-en-1-one] gave a viability at 48 h, 25 µM of 48.2%.

For `C=CC(=O)N(CC)CC(=O)N1CCCC(N2CCCS2(=O)=O)C1` (stereo not drawn) [3-I08, N-{2-[3-(1,1-dioxo-1lambda6,2-thiazolidin-2-yl)piperidin-1-yl]-2-oxoethyl}-N-ethylprop-2-enamide], the viability at 48 h, 25 µM was 91.2%.

`C=CC(=O)N(C)Cc1cc2ccccc2o1` [3-I09, N-[(1-benzofuran-2-yl)methyl]-N-methylprop-2-enamide] showed a viability at 48 h, 25 µM of 47.1%.

With `C=CC(=O)N1CCC(C(=O)NCc2nccn2C)(c2ccccc2)CC1` [3-I10, N-[(1-methyl-1H-imidazol-2-yl)methyl]-4-phenyl-1-(prop-2-enoyl)piperidine-4-carboxamide] the viability at 48 h, 25 µM was 92.9%.

`C=CC(=O)N1CCOC2(CCCC2)C1` [3-I11, 1-{6-oxa-9-azaspiro[4.5]decan-9-yl}prop-2-en-1-one] gave a viability at 48 h, 25 µM of 44.3%.

For `C=CC(=O)N1CC(C)OC2(CCOCC2)C1` (stereo not drawn) [3-I12, 1-{2-methyl-1,9-dioxa-4-azaspiro[5.5]undecan-4-yl}prop-2-en-1-one], the viability at 48 h, 25 µM was 91.6%.

`C=CC(=O)N1CCC(C(=O)Nc2nc3cc(F)ccc3n2CC)CC1` [3-I13, N-(1-ethyl-5-fluoro-1H-1,3-benzodiazol-2-yl)-1-(prop-2-enoyl)piperidine-4-carboxamide] gave a viability at 48 h, 25 µM of 62.5%.

For `C=CC(=O)N(C)CC(=O)NC(C)c1ncc(C)s1` (stereo not drawn) [3-I14, N-methyl-N-({[1-(5-methyl-1,3-thiazol-2-yl)ethyl]carbamoyl}methyl)prop-2-enamide], the viability at 48 h, 25 µM was 69.4%.

In the case of `C=CC(=O)N1CC(OCc2ccccc2F)C1` [3-I15, 1-{3-[(2-fluorophenyl)methoxy]azetidin-1-yl}prop-2-en-1-one], the viability at 48 h, 25 µM is reported as 40.4%.

For `C=CC(=O)N1CCN(Cc2ncon2)CC1` [3-I16, 1-{4-[(1,2,4-oxadiazol-3-yl)methyl]piperazin-1-yl}prop-2-en-1-one], the viability at 48 h, 25 µM was 106%.

`C=CC(=O)N1CCC(C(=O)NC2CCCc3nc(C)ncc32)CC1` (stereo not drawn) [3-I17, N-(2-methyl-5,6,7,8-tetrahydroquinazolin-5-yl)-1-(prop-2-enoyl)piperidine-4-carboxamide] gave a viability at 48 h, 25 µM of 32%.

With `C=CC(=O)N1CC[C@H](Oc2ccccc2)C1` [3-I18, 1-[(3S)-3-phenoxypyrrolidin-1-yl]prop-2-en-1-one] the viability at 48 h, 25 µM was 103%.

For `C=CC(=O)N1CCOCC1c1ccnn1C` (stereo not drawn) [3-I19, 1-[3-(1-methyl-1H-pyrazol-5-yl)morpholin-4-yl]prop-2-en-1-one], the viability at 48 h, 25 µM was 49.7%.

Compound `C=CC(=O)NCc1ccc(N2CCN(C)CC2)cc1` [3-I20, N-{[4-(4-methylpiperazin-1-yl)phenyl]methyl}prop-2-enamide] has a viability at 48 h, 25 µM of 112%.

Work on `C=CC(=O)N1CCC(C(=O)NC2CCN(C(=O)C(C)(C)C)CC2)CC1` [3-I21, N-[1-(2,2-dimethylpropanoyl)piperidin-4-yl]-1-(prop-2-enoyl)piperidine-4-carboxamide] yielded a viability at 48 h, 25 µM of 52.8%.

Work on `C=CC(=O)N1CCC(c2nc3c(s2)CCC3)CC1` [3-I22, 1-(4-{4H,5H,6H-cyclopenta[d][1,3]thiazol-2-yl}piperidin-1-yl)prop-2-en-1-one] yielded a viability at 48 h, 25 µM of 91.2%.

In the case of `C=CC(=O)N1CCC(C(=O)NCCn2c(=O)[nH]c3ccccc32)CC1` [3-J03, N-[2-(2-oxo-2,3-dihydro-1H-1,3-benzodiazol-1-yl)ethyl]-1-(prop-2-enoyl)piperidine-4-carboxamide], the viability at 48 h, 25 µM is reported as 72.2%.

`C=CC(=O)Nc1cc(NC(=O)c2ccc([N+](=O)[O-])o2)ccc1F` [3-J04, N-[4-fluoro-3-(prop-2-enamido)phenyl]-5-nitrofuran-2-carboxamide] showed a viability at 48 h, 25 µM of 0.415%.

Work on `C=CC(=O)N1CCC(C(=O)Nc2c[nH]c(=O)c(C)c2)CC1` [3-J05, N-(5-methyl-6-oxo-1,6-dihydropyridin-3-yl)-1-(prop-2-enoyl)piperidine-4-carboxamide] yielded a viability at 48 h, 25 µM of 51.5%.

Compound `C=CC(=O)N1CCC(C(=O)N2CC=CCC2)(c2ccccc2)CC1` [3-J06, 1-[4-phenyl-4-(1,2,3,6-tetrahydropyridine-1-carbonyl)piperidin-1-yl]prop-2-en-1-one] has a viability at 48 h, 25 µM of 61.7%.

`C=CC(=O)N(C)CC(=O)Nc1ccc(N2CCOCC2=O)c(C)c1` [3-J07, N-methyl-N-({[3-methyl-4-(3-oxomorpholin-4-yl)phenyl]carbamoyl}methyl)prop-2-enamide] gave a viability at 48 h, 25 µM of 51.4%.

`C=CC(=O)N1CCC(C(=O)NCc2ccc(C(N)=O)cc2)CC1` [3-J08, N-[(4-carbamoylphenyl)methyl]-1-(prop-2-enoyl)piperidine-4-carboxamide] showed a viability at 48 h, 25 µM of 82.2%.

Work on `C=CC(=O)NCCc1nnc(-c2ccccc2)o1` [3-J09, N-[2-(5-phenyl-1,3,4-oxadiazol-2-yl)ethyl]prop-2-enamide] yielded a viability at 48 h, 25 µM of 70.8%.

With `C=CC(=O)NCc1nc2ccccc2c(=O)n1C` [3-J10, N-[(3-methyl-4-oxo-3,4-dihydroquinazolin-2-yl)methyl]prop-2-enamide] the viability at 48 h, 25 µM was 88.6%.

With `C=CC(=O)N(Cc1ccc(-n2cncn2)cc1)C1CC1` [3-J11, N-cyclopropyl-N-{[4-(1H-1,2,4-triazol-1-yl)phenyl]methyl}prop-2-enamide] the viability at 48 h, 25 µM was 40.7%.

Work on `C=CC(=O)N1CCC(C(=O)Nc2ccc(CC)cc2)CC1` [3-J12, N-(4-ethylphenyl)-1-(prop-2-enoyl)piperidine-4-carboxamide] yielded a viability at 48 h, 25 µM of 85.6%.

Compound `C=CC(=O)NCc1csc2nccn12` [3-J13, N-({imidazo[2,1-b][1,3]thiazol-3-yl}methyl)prop-2-enamide] has a viability at 48 h, 25 µM of 76.8%.

`C=CC(=O)N1CCOCC2(COCCN2C)C1` (stereo not drawn) [3-J14, 1-{1-methyl-4,8-dioxa-1,11-diazaspiro[5.6]dodecan-11-yl}prop-2-en-1-one] gave a viability at 48 h, 25 µM of 96%.

With `C=CC(=O)NCC1CS(=O)(=O)c2ccccc21` (stereo not drawn) [3-J15, N-[(1,1-dioxo-2,3-dihydro-1lambda6-benzothiophen-3-yl)methyl]prop-2-enamide] the viability at 48 h, 25 µM was 81.2%.

For `C=CC(=O)Nc1ccc(-n2ccccc2=O)cc1F` [3-J16, N-[2-fluoro-4-(2-oxo-1,2-dihydropyridin-1-yl)phenyl]prop-2-enamide], the viability at 48 h, 25 µM was 101%.

Compound `C=CC(=O)NCCS(=O)(=O)c1cccs1` [3-J17, N-[2-(thiophene-2-sulfonyl)ethyl]prop-2-enamide] has a viability at 48 h, 25 µM of 93.4%.

`C=CC(=O)N1CCC(C(=O)Nc2n[nH]c3cc(C#N)c(C)cc23)CC1` [3-J18, N-(6-cyano-5-methyl-1H-indazol-3-yl)-1-(prop-2-enoyl)piperidine-4-carboxamide] showed a viability at 48 h, 25 µM of 90.3%.
